The results in this text go back to publication PMC10808224, “Lsr2 acts as a cyclic di-GMP receptor that promotes keto-mycolic acid synthesis and biofilm formation in mycobacteria” (Nature Communications, 2024).

What is called Kd is a measure of binding affinity in units of concentration. A high value points to a looser complex.

This assay concerns the target T1, Lsr2Msm (Mycolicibacterium smegmatis, UniProt A0R576).
T1 construct: gene MSMEG_6092; recombinant, E. coli BL21 (DE3), modified pET28a, C-terminal His-tag, Ni-NTA purified
Put plainly: isothermal titration calorimetry. The format is binding. For orientation: Isothermal titration calorimetry measures the heat released or taken up as one component is titrated into another.

Regarding `Nc1nc2c(ncn2[C@@H]2O[C@@H]3CO[P@](=O)(O)O[C@H]4[C@@H](O)[C@H](n5cnc6c(=O)[nH]c(N)nc65)O[C@@H]4CO[P@](=O)(O)O[C@H]3[C@H]2O)c(=O)[nH]1` [c-di-GMP], binding was put at a Kd of 96.4 nM.
